Reference: PubChem BioAssay AID2060353 (Molecular Pharmacology Branch, DTP, NCI, 2025)

System: 521955-158-R2-J5-PDC spheroids with stroma, growth inhibition
Experiment: Anticancer human tumor 521955-158-R2-J5-PDC patient-derived pancreatic carcinoma cell line growth inhibition [TAK]
Conditions: for IC50: curve of first compound; for viability, T/C: stronger effect = lower value
Procedure, shortened: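 Drug combinations, each paired with TAK-243 or ipatasertib, were tested on multi-cell spheroids of 60% malignant cells, 25% HUVEC and 15% hMSC. Top concentrations were at or near the clinical Cmax (10 microM if undetermined), decreasing by half-log; viability is given as % test/control.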

[1] = second compound 0.3 µM, first compound 0.00316 µM
[2] = second compound 0.3 µM, first compound 0.01 µM
[3] = second compound 0.3 µM, first compound 0.0316 µM
[4] = second compound 0.3 µM, first compound 0.1 µM
[5] = second compound 0.949 µM, first compound 0.00316 µM
[6] = second compound 0.949 µM, first compound 0.01 µM
[7] = second compound 0.949 µM, first compound 0.0316 µM
[8] = second compound 0.949 µM, first compound 0.1 µM
[9] = second compound 3 µM, first compound 0.00316 µM
[10] = second compound 3 µM, first compound 0.01 µM
[11] = second compound 3 µM, first compound 0.0316 µM
[12] = second compound 3 µM, first compound 0.1 µM
[13] = second compound 9.49 µM, first compound 0.00316 µM
[14] = second compound 9.49 µM, first compound 0.01 µM
[15] = second compound 9.49 µM, first compound 0.0316 µM
[16] = second compound 9.49 µM, first compound 0.1 µM
[17] = second compound 30 µM, first compound 0.00316 µM
[18] = second compound 30 µM, first compound 0.01 µM
[19] = second compound 30 µM, first compound 0.0316 µM
[20] = second compound 30 µM, first compound 0.1 µM
[21] = second compound 0.3 µM, first compound 0.316 µM
[22] = second compound 0.3 µM, first compound 1 µM
[23] = second compound 0.949 µM, first compound 0.316 µM
[24] = second compound 0.949 µM, first compound 1 µM
[25] = second compound 3 µM, first compound 0.316 µM
[26] = second compound 3 µM, first compound 1 µM
[27] = second compound 9.49 µM, first compound 0.316 µM
[28] = second compound 9.49 µM, first compound 1 µM
[29] = second compound 30 µM, first compound 0.316 µM
[30] = second compound 30 µM, first compound 1 µM
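Further: spheroids exposed to drugs for seven days before readout.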
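Wherever viability, T/C is given: 100% = DMSO vehicle control viability.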

| SMILES | IC50 (second compound 0.3 µM) | IC50 (second compound 0.949 µM) | IC50 (second compound 3 µM) | IC50 (second compound 9.49 µM) | IC50 (second compound 30 µM) | viability, T/C [1] | viability, T/C [2] | viability, T/C [3] | viability, T/C [4] | viability, T/C [5] | viability, T/C [6] | viability, T/C [7] | viability, T/C [8] | viability, T/C [9] | viability, T/C [11] | viability, T/C [12] | viability, T/C [15] | viability, T/C [16] | viability, T/C [19] | viability, T/C [20] | further results |
| --- | --- | --- | --- | --- | --- | --- | --- | --- | --- | --- | --- | --- | --- | --- | --- | --- | --- | --- | --- | --- | --- |
| CC(C)CC(NC(=O)CNC(=O)c1cc(Cl)ccc1Cl)B1OC(=O)CC(CC(=O)O)(C(=O)O)O1 (stereo not given) + CC(C)NCC(C(=O)N1CCN(c2ncnc3c2C(C)CC3O)CC1)c1ccc(Cl)cc1 | 39 nM | 30 nM | 26.8 nM | 25.7 nM | 15.2 nM | 104% | 116% | 59% | 8.82% | 87.6% | 94.2% | 48.1% | 6.65% | 87% | 44.4% | 6.08% | 35.7% | 4.11% | 21.3% | 2.31% | viability, T/C (second compound 0.3 µM, first compound 0.000316 µM): 129%; viability, T/C (second compound 0.3 µM, first compound 0.001 µM): 114%; viability, T/C (second compound 0.949 µM, first compound 0.000316 µM): 85.2%; viability, T/C (second compound 0.949 µM, first compound 0.001 µM): 98.6%; viability, T/C (second compound 3 µM, first compound 0.000316 µM): 77.8%; viability, T/C (second compound 3 µM, first compound 0.001 µM): 78%; viability, T/C [10]: 89.6%; viability, T/C (second compound 9.49 µM, first compound 0.000316 µM): 123%; viability, T/C (second compound 9.49 µM, first compound 0.001 µM): 103%; viability, T/C [13]: 115%; viability, T/C [14]: 122%; viability, T/C (second compound 30 µM, first compound 0.000316 µM): 69.3%; viability, T/C (second compound 30 µM, first compound 0.001 µM): 69.1%; viability, T/C [17]: 72.4%; viability, T/C [18]: 66.4% |
| COc1c(OCCCN2CCOCC2)ccc2c3n(c(=NC(=O)c4cnc(N)nc4)nc12)CCN3 + CC(C)NCC(C(=O)N1CCN(c2ncnc3c2C(C)CC3O)CC1)c1ccc(Cl)cc1 | 18.5 nM | 5.05 nM | < 3.16 nM | < 3.16 nM | < 3.16 nM | 69.3% | 60.2% | 40.2% | 25.3% | 51% | 48.7% | 31.4% | 15.8% | 41% | 17.3% | 10.1% | 12.8% | 8.78% | 8.7% | 7.22% | viability, T/C [21]: 7.66%; viability, T/C [22]: 7.14%; viability, T/C [23]: 8.04%; viability, T/C [24]: 7.27%; viability, T/C [10]: 28%; viability, T/C [25]: 7.86%; viability, T/C [26]: 7.56%; viability, T/C [13]: 23.8%; viability, T/C [14]: 16.5%; viability, T/C [27]: 7.47%; viability, T/C [28]: 7.49%; viability, T/C [17]: 19.2%; viability, T/C [18]: 13.1%; viability, T/C [29]: 6.67%; viability, T/C [30]: 5.5% |
| Cc1nc(NC(=O)N2CCCC2C(N)=O)sc1-c1ccnc(C(C)(C)C(F)(F)F)c1 (stereo not given) + CC(C)NCC(C(=O)N1CCN(c2ncnc3c2C(C)CC3O)CC1)c1ccc(Cl)cc1 | 909 nM | 533 nM | 159 nM | 123 nM | < 31.6 nM | – | – | 109% | 84.3% | – | – | 76.2% | 69% | – | 78.7% | 54% | 70.7% | 55.4% | 48% | 42.7% | viability, T/C [21]: 58.2%; viability, T/C [22]: 49%; viability, T/C (second compound 0.3 µM, first compound 3.16 µM): 45.1%; viability, T/C (second compound 0.3 µM, first compound 10 µM): 30.1%; viability, T/C [23]: 52.5%; viability, T/C [24]: 45%; viability, T/C (second compound 0.949 µM, first compound 3.16 µM): 34.8%; viability, T/C (second compound 0.949 µM, first compound 10 µM): 27.7%; viability, T/C [25]: 40.6%; viability, T/C [26]: 31.3%; viability, T/C (second compound 3 µM, first compound 3.16 µM): 22.3%; viability, T/C (second compound 3 µM, first compound 10 µM): 15.2%; viability, T/C [27]: 29.5%; viability, T/C [28]: 19.6%; viability, T/C (second compound 9.49 µM, first compound 3.16 µM): 13.7%; viability, T/C (second compound 9.49 µM, first compound 10 µM): 8.86%; viability, T/C [29]: 23.9%; viability, T/C [30]: 17.2%; viability, T/C (second compound 30 µM, first compound 3.16 µM): 11%; viability, T/C (second compound 30 µM, first compound 10 µM): 6.07% |
